Experimental findings from US9927437B2, “Treating neurodegenerative disease” (THE BRIGHAM AND WOMEN'S HOSPITAL, INC., priority 2013, dated 2018) are described below.

In one data set the test system is T cells. In words: T-cell response in EAE mice (recall proliferation, cytokines, polarization). It counts as in vivo, mouse. The note with it: for T-cell response: NOD EAE, daily Miglustat. The procedure:
FIGS. 9a-d. Depletion of reactive astrocytes reduces the recruitment of peripheral leukocytes to the CNS. (a-d). EAE was induced in WT or GFAP^TK F1 hybrid mice and Ganciclovir (GCV) or vehicle control (PBS) was administered as in FIG. 1b. Data are representative of three independent experiments with n≥7 mice/group (means and s.e.m.). (a) Effect of GCV administration on reactive astrocytes detected by GFAP staining (b) Recruitment of monocytes (red gate) and lymphocytes (green gate) to the CNS assessed by FACS. Data are representative of three independent experiments. Statistical analysis by Student's t-test. (c, d) Effect of the depletion of reactive astrocytes during the chronic phase of EAE on the recall proliferative response to MOG(35-55) or anti-CD3 (c) and the expression of IFN-γ, IL-17A, Foxp3 and IL-10 in splenic CD4+ T cells (d). *P<0.05, and (n.s) not significant.
FIGS. 12a-i. […] (a) Naïve C57BL/6 (Left panel) and NOD (right panel) mice were treated with LacCer (10 μg per mouse) or vehicle as indicated by red arrows, and EAE clinical scores was recorded. At experimental end point (day 25), astrocytes were isolated and their transcriptional profile was determined by nCounter Nanostring analysis. (b-e) EAE was induced in C57BL/6 (b, c) or NOD mice (d, e) and LacCer or vehicle were administrated as in FIGS. 1g and 1h, respectively. Splenic T-cell recall response to MOG(35-55) (20 μg/ml); proliferation (b, d) and secretion of IL-17A, IFN-γ and IL-10 cytokines (c, e). Data are representative of two independent experiments with ≥8 mice/group (mean and s.e.m.). (f-i) EAE NOD mice were treated with PDMP or vehicle during the chronic phase as in FIG. 1K. Data are representative of three independent experiments with n≥8 mice/group (mean and s.e.m.). (f) qPCR analysis of the expression of tbx21, ifng, rorc, il17A, csf2, il10, foxp3, and tgfb1 mRNA of CD3^+CD4^+ T-cells isolated from the CNS; expression is presented relative to gapdh. (g, h) Recall response to MOG(35-55) (20 μg/ml); proliferation (g) and secretion of IL-17A, IFN-γ and IL-10 cytokines (h). (i) Expression of IFN-γ, IL-17A, Foxp3 and IL-10 by splenic CD3^+CD4^+ T cells (mean and s.e.m.).
Splenocytes and lymph node cells were cultured in X-VIVO medium and were plated for 72 h at a density of 5×10^5 cells per well in the presence of MOG35-55 peptide. During the final 16 h, cells were pulsed with […] [3H]thymidine (PerkinElmer), followed by collection on glass fiber filters and analysis of incorporated [3H]thymidine in a-counter (1450 MicroBeta TriLux; PerkinElmer). Supernatants were collect after 48 h of culture for cytokine measurement by enzyme-linked immunosorbent assay^14. For intracellular cytokine staining, cells were stimulated for 6 h with PMA (phorbol 12-myristate 13-acetate; 50 ng/ml; Sigma), ionomycin (1 μg/ml; Sigma) and monensin (GolgiStop; […]; BD Biosciences). After staining of surface markers, cells were fixed and made permeable according to the manufacturer's instructions BD Cytofix/Cytoperm™ Kit (BD Biosciences), or Foxp3 Fixation/Permeabilization (Ebiosceince).

In a further data set the test system is inflammatory monocytes. Put plainly: Recruitment of inflammatory monocytes to the CNS of EAE NOD mice (flow cytometry). The format is in vivo, mouse. The note with it: daily Miglustat from onset of progressive phase. Background: In flow cytometry, cells or beads pass a laser one at a time.
The next data set relates to primary astrocytes. Put plainly: Activation of cultured primary astrocytes, mRNA expression. It counts as cell-based, mouse. The conditions noted are these: primary mouse astrocytes activated with LPS/IFNγ; Miglustat. The procedure: FIGS. 3a-m. LacCer produced by B4GALT6 acts in an autocrine manner to boost astrocyte activation. Cultured astrocytes were pre-treated for 1 h with PDMP (25 μM), LacCer (10 μM), both (LacCer+PDMP), or vehicle (vehicle), followed by activation with lipopolysaccharide (100 ng/ml) and Interferon-γ (100 Units/ml) (LPS/IFNγ) or left un-treated (control). (a) Heatmap depicting mRNA expression, as detected by Nanostring nCounter analysis, in astrocytes stimulated with LPS/IFNγ. Representative data of three independent experiments. (b) Histogram presentation of the normalized gene expression presented in (a), statistical analysis by one-way ANOVA followed by Tukey post-hoc analysis. (c-i) The expression of B4galt5 (shB4galt5), B4galt6 (shB4galt6) or non-targeting shRNA (ShControl) in C8-D30 astrocytes was knocked-down using verified shRNA (n≥4). (c) qRT analysis of B4galt5 and B4galt6 mRNA expression. (d-f) astrocytes were activated as in (a) and mRNA expression for (d) H2-Aa, (e) Ccl5 and (f) Cxcl10 was determined; expression is presented relative to house keeping gene (Gapdh) (n≥4). (g) Schematic map of the astrocyte-specific shRNA lentiviral vector. […] NOD mice were injected i.c.v. with 1×10^7 IU of shControl, shB4galt5 or shB4galt6 lentivirus, at day 35 after EAE induction (progressive phase). n=10 mice per group (h, i) 10 days after i.c.v. injection experiment was terminated and (h) b4galt5 and b4galt6 expression levels were determined by qPCR in astrocytes isolated from naïve or EAE NOD mice; expression normalized to gapdh and presented relative to that of cells from naïve mice. Representative data of two independent experiments, Statistical analysis by one-way ANOVA, followed by Tukey post-hoc analysis. (i) LacCer levels were quantified of in the CNS of naïve or EAE NOD mice treated as shown in (j). Statistical analysis by one-way ANOVA, followed by Tukey post-hoc analysis. (j) EAE clinical scores. Representative data of two independent experiments. Statistical analysis as in (FIG. 1a). (k) Cultured primary astrocytes were pre-treated for 1 h with PDMP (25 μM), LacCer (10 μM), both (LacCer+PDMP), or vehicle control (vehicle), followed by activation with LPS/IFNγ for 45 min, or left un-treated (control, Con). IRF-1 and Lamin B expression in the nuclear fraction analyzed by western blot and the degree of IRF-1 translocation to the nucleus was assessed by the ratio between the expression of IRF-1 and Lamin-B in the nuclear fractions following densitometric quantification on four independent experiments (right panel). Statistical analysis by one-way ANOVA, followed by Tukey post-hoc analysis. (l) ChIP analysis of the interaction of NF-κB, and IRF-1 with the) nos2 promoter in primary cultured astrocytes. Experimental design and data analysis as in (FIG. 4c). Data from two independent experiments (m) qPCR analysis of the expression of nos2, csf2, ccl2, ccl5, il6, and tlr2 in astrocyte cultures established from WT or IRF-1 deficient (IRF-1 KO) mice, pre-treated with LacCer or vehicle, and activated with LPS/IFNγ. […]
FIGS. 14a-g. […] (a) Cultured astrocytes were pre-treated for 1 h with PDMP (25 μM), LacCer (10 μM), both (LacCer+PDMP), or vehicle control (vehicle), followed by activation with LPS/IFNγ for 6 h, or left un-treated (control, Con). mRNA expression was analyzed 6 h following activation. qPCR analysis of the expression of cc/5, csf2, nos2, il6, H2-Aa, and tlr2 presented relative to gapdh. […]

A further data set has as its system EAE NOD mice. Put plainly: EAE in NOD mice, progressive phase (clinical score, histopathology, body weight). It counts as in vivo. The note with it: NOD EAE; for body weight: daily Miglustat.
The next data set has as its system reactive astrocytes. In words: EAE in F1 NOD C57BL/6 GFAP-HSV-TK hybrid mice, depletion of reactive astrocytes. The format is in vivo, mouse.

“Also recorded” adds a separate entry of the source.

Take `CCCCN1C[C@H](O)[C@@H](O)[C@H](O)[C@H]1CO` [Miglustat, N-butyl-deoxynojirimycin]: the figures for the T-cell response entry with T cells and in the data set with T cells (listed as miglustat) were “does not affect T-cell polarization” and “did not affect”, respectively. The “recruitment of inflammatory monocytes to the CNS” value in the data set on inflammatory monocytes is on record as “reduced the recruitment; also recorded: reduces monocytes recruitment”. For the same compound, the astrocyte activation entry in the data set on primary astrocytes is reported as “inhibits astrocyte activation”. In addition, the body weight result in the data set on EAE NOD mice was “does not affect body weight”; in the data set with EAE NOD mice (listed as miglustat) it was “did not affect”. Also, the “clinical course of EAE disease progression” value with EAE NOD mice (daily from onset of progressive phase, oral 1800 or 600 mg/kg, or nasal 900 mg/kg twice a day) is recorded as “suppressed the clinical course of disease progression; also recorded: halts chronic EAE progression”.
As to `Nc1nc(O)c2ncn(COC(CO)CO)c2n1` [GCV, Ganciclovir], in the data set with T cells (GFAP-TK F1 mice, GCV during progressive phase), the “peripheral T-cell response” value was “did not affect”. For the same compound, the “EAE scores, astrocyte depletion during the progressive phase” value in the data set on reactive astrocytes (25 mg/kg daily s.c. days 30-50) is “significant amelioration of EAE”. Also, in the data set on reactive astrocytes (25 mg/kg daily s.c. from 7 days before induction until day 15), the “EAE scores, astrocyte depletion during the acute phase” value is recorded as “significant worsening of EAE”. Moreover, in the data set on reactive astrocytes (treatment during progressive phase, FACS), the “leukocyte infiltration in the CNS” value was “decreased leukocyte infiltration”.
